Test results published in patent US10701931B2, “Mosquito activating formulations” (Commonwealth Scientific and Industrial Research Organisation, priority 2015, dated 2020).
“And” between values parts separate entries of the source, which are not always exact repeats. Equal values may be shown once.

Tests used:
Total mosquito = experiment: Field trial with CDC light traps, total mosquito catch; format: in vivo; details: CDC light trap, one night, treatment per Table 3
Method: (§1) Field trials based on an imperfect Latin square design compared the attraction of An. farauti to MTPE with and without CO2. Treatments included CO2 alone, CO2 in combination with MTPE lure, or MTPE lure alone. Centres for Disease Control and Prevention (CDC) light traps were used to deliver MTPE lures and/or CO2. MTPE lures consisted of 500 μl of MTPE in mineral oil, 10-100,000 ppm spread on filter paper. MTPE/mineral oil mixtures were spread on filter paper, rolled into a tight wick, and inserted into a specimen tube. Specimen tubes where then wired to a CDC trap. CO2 was delivered using 1 kg dry ice, hung above a CDC light trap, as per standard sampling protocols. MTPE+/−CO2 combinations were randomised between 4 trap positions over three nights. Traps were placed at least 50 m apart to manage interference and were set between 5 pm and 7 am each night. Trap catches were subsequently returned to the laboratory, counted and identified as “Anopheles farauti s.l” or “other”.
(§2) As CO2 is a known mosquito attractant, all catches were compared to CO2 alone.

Anopheles farauti s.l = experiment: Field trial with CDC light traps, Anopheles farauti s.l catch; format: in vivo; details: for Anopheles farauti s.l catch numbers: CDC light trap, one night, treatment per Table 3
Method: as §1, §2

[1] = test system: Anopheles stephensi maxillary palps; experiment: Electropalpogram (EPG), non bloodfed females; details: for EPG response compared to mineral oil control: n=7
Method: (§3) In order to assess Y-tube olfactometry experiments and field trials using an independent technique and to investigate the physiological basis of the observed activation and attraction behaviour, electroanntennogram (EAG) and electropalpogram (EPG) studies were performed on A. stephensi female mosquitoes. EAG studies were also performed on Anopheles farauti, Culex annulirostris and Aedes aegypti female mosquitoes.
(§4) Five to eight days Anopheles stephensi, two to fourteen days old Culex annulirostris and Aedes aegypti as well as four days old Anopheles faraulti non-blooded females, fed on 10% sucrose ad-libitum and then starved for >12 hours, were used. Mosquito head was excised and placed on the reference electrode coated with electrode gel (Parker Laboratories, Orange, N.J.). The distal end of the antennae or palp (<0.5 mm), cut to ensure a good electrical contact, were carefully placed on the recording electrode (Syntech, Germany). Signals were fed to a 10× amplifier and processed with IDAC 4 and PC-based interface and EAG software package (Syntech, Germany).
(§5) Thus 1-octen-3-ol was used in the EAG analysis as a positive control with thio compounds, (E and Z)-1-methylthio-1-propene, 3-methyl-thio-1-propanol, ally methyl sulphide, and carbon dioxide (5%) and mineral oil (negative control). Pure chemicals were diluted in mineral oil to a 10 times v/v stock solution, from which decadal dilutions were made. A 10 μl aliquot of each solution was applied to a filter paper strip (1×3.5 cm; Whatman No. 4, Fisher Scientific) and the solvent was evaporated under a fume hood before inserting the paper strip into 5 ml disposable plastic syringe (Terumo syringes). A 500 ms pulse (5 ml/s) was delivered by stimulus controller CS-55 (Syntech, Germany) to deliver chemical stimulants to a humidified continuous air flow (10 ml/s) over the electrophysiolgical preparation. The chemicals were tested randomly and applied with 0.5-1 min intervals between stimulations.
(§6) Initial screening was performed using a 10 times dilution (1/10, v/v) source dose solution. Then 1-methylthio-1-propene and 1-octen-3-ol were selected for further dose-response study. A minimum of five mosquitoes were tested for each compound to calculate the average EAG amplitude±standard error (SE).

[2] = test system: Anopheles farauti antennae; experiment: Electroantennogram (EAG), non bloodfed females; details: chemicals at 1/10 concentrations
Method: as §3, §4, §5, §6

[3] = test system: Anopheles stephensi antennae; experiment: Electroantennogram (EAG), non bloodfed females
Method: as §3, §4, §5, §6

[4] = test system: Anopheles farauti maxillary palps; experiment: Electropalpogram (EPG), non bloodfed females; details: chemicals at 1/10 concentrations, CO2 5%; for EPG response compared to mineral oil control: n=6
Anopheles stephensi [5] = experiment: Y-tube olfactometer, measurement of attraction against CO2/1-octen-3-ol positive control; format: in vivo; details: for Attraction (against CO2 + 1-octen-3-ol): An. stephensi females
Method: Attraction to these components was compared to a standard “positive control” known to elicit a directional response in An. stephensi mosquitoes placed in an olfactometer. The standard used as a positive control is a mix of compressed air, 5% CO2 and an octenol source. Unpaired t-test was used to test for the differences in means for all data sets presented.
The MR4 strain of An. stephensi (New Delhi, India) was maintained at 27° C., 70% RH, 12:12 L:D and 30 min dawn/dusk periods). 4 to 7 day old female mosquitoes, that had never received a blood meal, were used in experiments. Mosquitoes were maintained on 10% sugar solution ad libitum but starved for 12 hr prior to testing.
The Y tube olfactometer is made entirely of glass and consists of a release chamber, the Y tube itself, and a trap chamber attached to each arm (FIG. 1). Each trap chamber is divided in two by a fine glass filter. On the far side of those filters, the trap chambers can connect to charcoal filters or to gas bags or gas cylinders. Air is pulled through the olfactometer by connecting the release chamber to a vacuum tap which vents the contents of the tube. Standard air flow (0.4 L/minute) is maintained using a 0.1-1.2 LPM flow meter (John Morris Pty, LTD). The air volume of the Y-tube is approximately 1 litre and is therefore replaced every 2.5 minutes.
1 μl 10^−4% 1-octen-3-ol in mineral oil (Sigma Aldrich) was spotted on 1 cm^2 Whatman filter paper.
5% CO2 by volume was added to a 10 L FlexFilm gasbag (SKC Inc.) of compressed air.
When a CO2/1-octen-3-ol mix was required, 5% CO2 was delivered by connecting the gas bag to the requisite Y tube arm and placing the 1-octen-3-ol treated filter paper between the gasbag inlet and the glass filter of the trap chamber.
All experiments were run under PC2 quarantine conditions, at 27° C., 70% RH, under infrared light. Observers were always in the same position during the tests, at the trap chamber end of the olfactometer, between the 2 arms of the Y tube.
Using an aspirator, 25-30 starved female An. stephensi were introduced into the release chamber (FIG. 1).
After each test, mosquitoes were carefully aspirated from the apparatus by disconnecting constituent parts. The apparatus was flushed with clean air (charcoal filters only) for 5 minutes before the next batch of stimuli was introduced.
A total of 10 replicates (different batches of mosquitoes) were run for each stimuli assessment. Treatment and control arms were alternated between replicates. After completion of 10 replicates, the apparatus was rinsed in acetone and allowed to dry overnight.
Once the range of doses that “activated” mosquitoes had been established, the capacity of those concentrations to initiate a directional response was tested. In this instance, experiments were conducted in comparison to a positive control of CO2/1-octen-3-ol [[…]]. […] A positive control was used to assess whether test stimuli were at least as attractive as a standard directional stimulus.

Anopheles stephensi [6] = experiment: Y-tube olfactometer, measurement of activation against clean air; format: in vivo; details: for Concentration of greatest activation response: tested 10^-2 to 10^-5%; for Activation (against clean air): An. stephensi females
Method: A y-tube olfactometer was used to establish whether the volatile components of human breath elicited behavioural responses in the malaria vector Anopheles stephensi. The MR4 strain of An. stephensi (New Delhi, India) was maintained at 27° C., 70% RH, 12:12 L:D and 30 min dawn/dusk periods). 4 to 7 day old female mosquitoes, that had never received a blood meal, were used in experiments. Mosquitoes were maintained on 10% sugar solution ad libitum but starved for 12 hr prior to testing. The Y tube olfactometer is made entirely of glass and consists of a release chamber, the Y tube itself, and a trap chamber attached to each arm (FIG. 1). Each trap chamber is divided in two by a fine glass filter. On the far side of those filters, the trap chambers can connect to charcoal filters or to gas bags or gas cylinders. Air is pulled through the olfactometer by connecting the release chamber to a vacuum tap which vents the contents of the tube. Standard air flow (0.4 L/minute) is maintained using a 0.1-1.2 LPM flow meter (John Morris Pty, LTD). The air volume of the Y-tube is approximately 1 litre and is therefore replaced every 2.5 minutes. One arm is attached to a gas bag of clean air (from a compressed air cylinder) […]. The other arm remains connected to a carbon filter and the air inlet to give a plume of compressed air plus test stimuli (i.e. standard air concentration of CO2 only). 1 μl 10^−2 to 10^−5% test stimuli in mineral oil (Sigma Aldrich) was spotted on 1 cm^2 Whatman filter paper. Test stimuli was delivered by placing treated filter paper between the air inlet and the trap chamber to give a plume of compressed air plus test stimuli (i.e. standard air concentration of CO2 only). All experiments were run under PC2 quarantine conditions, at 27° C., 70% RH, under infrared light. Observers were always in the same position during the tests, at the trap chamber end of the olfactometer, between the 2 arms of the Y tube. Using an aspirator, 25-30 starved female An. stephensi were introduced into the release chamber (FIG. 1). […] After each test, mosquitoes were carefully aspirated from the apparatus by disconnecting constituent parts. The apparatus was flushed with clean air (charcoal filters only) for 5 minutes before the next batch of stimuli was introduced. A total of 10 replicates (different batches of mosquitoes) were run for each stimuli assessment. Treatment and control arms were alternated between replicates. After completion of 10 replicates, the apparatus was rinsed in acetone and allowed to dry overnight. Initial experiments were therefore less concerned with directional responses and more with establishing the range of doses that appeared to cause some form of excitation. Those initial experiments were conducted in comparison to a neutral control (a negative would be repellent) of clean air drawn through a charcoal filter. The test stimuli were tested against mosquitoes at serial dilutions in the range 10^−2 to 10^−5%. Once mosquitoes had stopped responding, the numbers in the olfactometer arms, base leg and release chamber were counted. Mosquitoes were assumed to have been “activated” if they moved into the Y tube arms.

C. annulirostis antennae = experiment: Electroantennogram (EAG), non bloodfed females; parameters: species or system Culex annulirostris; details: n=5
Method: as §3, §4
(§7) Thus 1-octen-3-ol was used in the EAG analysis as a positive control with thio compounds, (E and Z)-1-methylthio-1-propene, 3-methyl-thio-1-propanol, ally methyl sulphide, and carbon dioxide (5%) and mineral oil (negative control). […]

A. aegypti antennae = experiment: Electroantennogram (EAG), non bloodfed females; parameters: species or system Aedes aegypti; details: n=5
Method: as §3, §4, §7

[7] = test system: female Anopheles funestus antennae; details: cited from earlier work
[8] = test system: female An. gambiae antennae; details: cited from earlier work
[9] = chemicals at 1/10 concentrations, CO2 5%
[10] = dilution 0.00001 (10^-5)% in mineral oil
[11] = dilution 0.0001 (10^-4)% in mineral oil
[12] = dilution 0.001 (10^-3)% in mineral oil
[13] = dilution 0.01 (10^-2)% in mineral oil

CC=CSC [MTPE, 1-methylthio-1-propene]
Total mosquito catch numbers (Total mosquito; 100 ppm MTPE lure alone): 189 | Total mosquito catch numbers (Total mosquito; CO2 + 1000 ppm MTPE lure): 203 and 264 and 358 | Attractancy in field trial, compared to CO2 alone (Anopheles farauti s.l; 100 ppm): attractive | Anopheles farauti s.l catch numbers (Anopheles farauti s.l; 100 ppm MTPE lure alone): 28 | Attractancy in field trial, effect of CO2 (Anopheles farauti s.l; 1,000 ppm MTPE with CO2): CO2 synergises attractancy | Attractancy in field trial, compared to CO2 alone (Anopheles farauti s.l; 10,000 ppm): not attractive, possibly repellent | Attractancy in field trial, compared to CO2 alone (Anopheles farauti s.l; 100,000 ppm): not attractive, possibly repellent | Anopheles farauti s.l catch numbers (Anopheles farauti s.l; CO2 + 1000 ppm MTPE lure): 89 and 78 and 63 | Dose dependence of attractancy in field trial (Anopheles farauti s.l; MTPE lures 100-100,000 ppm): Dose dependent attractancy | EPG response, comparison among tested chemicals [1, 9]: strongest response | EPG response compared to mineral oil control [1, 9]: significant responses | EPG response, dose dependence ([1]; decadal dilutions, n=6): dose dependant | EAG response, comparison among tested chemicals [2]: strongest response | EAG response, comparison among tested chemicals ([3]; chemicals at 1/10 concentrations): strongest response | EAG response, dose dependence ([3]; decadal dilutions, n=7): dose dependant | EPG response, comparison among tested chemicals [4]: strongest response | Attractiveness relative to 1-octen-3-ol/CO2 (Anopheles stephensi [5]; at 0.0001%): more attractive | Attraction (against CO2 + 1-octen-3-ol) (Anopheles stephensi [5]; dilution 0.0001 (10^-4)%): Yes | Concentration of greatest activation response (Anopheles stephensi [6]; against clean air): 0.0001 % v/v | Activation compared with that at 0.0001% v/v (Anopheles stephensi [6]; at lower (0.00001%) and higher (0.001-0.01%) concentrations (v/v)): reduced | Activation (against clean air) (Anopheles stephensi [6]; [10]): Yes | Activation (against clean air) (Anopheles stephensi [6]; [11]): Yes | Activation (against clean air) (Anopheles stephensi [6]; [12]): Yes | Activation (against clean air) (Anopheles stephensi [6]; [13]): Yes

C=CCSC [AMS, Allyl methyl sulphide]
EPG response compared to mineral oil control [1, 9]: significant responses | Attractiveness relative to 1-octen-3-ol/CO2 (Anopheles stephensi [5]; at 0.00001%): twice | Attraction (against CO2 + 1-octen-3-ol) (Anopheles stephensi [5]; dilution 0.00001 (10^-5)%): Yes | Concentration of greatest activation response (Anopheles stephensi [6]; against clean air): 0.00001 % v/v | Activation (against clean air) (Anopheles stephensi [6]; [10]): caused activation and Yes | Activation (against clean air) (Anopheles stephensi [6]; [11]): Yes | Activation (against clean air) (Anopheles stephensi [6]; [13]): Yes

O=C=O [CO2, carbon dioxide, reference compound]
Total mosquito catch numbers (Total mosquito; CO2 alone (1 kg dry ice)): 206 and 233 and 298 | EPG response compared to mineral oil control [1, 9]: significant responses | EPG response compared to mineral oil control [4]: significant responses

CSCCCO [MTPL, 3-methylthio-1-propanol]
EPG response compared to mineral oil control [1, 9]: did not | EAG response, comparison among tested chemicals (C. annulirostis antennae): strongest response | EAG response, comparison among tested chemicals (A. aegypti antennae): strongest response | Attractiveness relative to 1-octen-3-ol/CO2 (Anopheles stephensi [5]; at 0.01%): 1.5 | Concentration range over which an activation response was initiated (Anopheles stephensi [6]; against clean air): 0.00001-0.01% | Activation (against clean air) (Anopheles stephensi [6]; [11]): Yes | Activation (against clean air) (Anopheles stephensi [6]; [12]): Yes | Activation (against clean air) (Anopheles stephensi [6]; [13]): Yes

C=CC(O)CCCCC (stereo not shown) [1-octen-3-ol, reference compound]
EPG response compared to mineral oil control [1, 9]: did not | EAG response [7]: significant EAG response | EAG response compared to mineral oil control ([2]; CO2 5%, n=5): significantly responding | EAG response compared to mineral oil control ([3]; chemicals at 1/10 concentrations, CO2 5%, n=6): significantly responded | EPG response compared to mineral oil control [4]: did not | EAG response, comparison among tested chemicals (C. annulirostis antennae): strongest response | EAG response [8]: significant EAG response
